{"source": "patent US20240082282A1", "about": "(priority 2020, published 2024)", "key": {"[1]": {"tested_on": "Streptococcus salivarius KLE 2370", "type": "cell-based", "conditions": "Streptococcus salivarius KLE 2370, anaerobic, stool isolate"}, "[2]": {"tested_on": "Borrelia turcica DSM 16138"}, "[3]": {"tested_on": "Enterobacter cloacae ATCC 13047", "type": "cell-based", "conditions": "Enterobacter cloacae ATCC 13047, anaerobic"}, "[4]": {"tested_on": "Staphylococcus epidermidis KLE 2378", "type": "cell-based", "conditions": "Staphylococcus epidermidis KLE 2378, anaerobic, stool isolate"}, "[5]": {"tested_on": "Streptococcus parasanguinis KLE 2375", "type": "cell-based", "conditions": "Streptococcus parasanguinis KLE 2375, anaerobic, stool isolate"}, "[6]": {"tested_on": "Borreliella burgdorferi B31"}, "[7]": {"tested_on": "Bacteroides vulgatus KLE 2381", "type": "cell-based", "conditions": "Bacteroides vulgatus KLE 2381, anaerobic, stool isolate"}, "[8]": {"tested_on": "Bacteroides ovatus KLE 2306", "type": "cell-based", "conditions": "Bacteroides ovatus KLE 2306, anaerobic, stool isolate"}, "[9]": {"tested_on": "Bacteroides eggerthii KLE 2382", "type": "cell-based", "conditions": "Bacteroides eggerthii KLE 2382, anaerobic, stool isolate"}, "[10]": {"tested_on": "Enterococcus faecalis KLE 2341", "type": "cell-based"}, "[11]": {"tested_on": "Bacteroides xylanisolvens KLE 2305", "type": "cell-based", "conditions": "Bacteroides xylanisolvens KLE 2305, anaerobic, stool isolate"}, "[12]": {"tested_on": "Salmonella typhimurium LT2 ATCC 19585", "type": "cell-based"}, "[13]": {"tested_on": "Bacteroides nordii KLE 2369", "type": "cell-based", "conditions": "Bacteroides nordii KLE 2369, anaerobic, stool isolate"}, "[14]": {"tested_on": "Borreliella burgdorferi N40", "conditions": "Borreliella burgdorferi N40, microaerophilic"}, "[15]": {"tested_on": "Streptococcus sanguinis KLE 2374", "type": "cell-based", "conditions": "Streptococcus sanguinis KLE 2374, anaerobic, stool isolate"}, "[16]": {"tested_on": "Parabacteroides merdae KLE 2238", "type": "cell-based", "conditions": "Parabacteroides merdae KLE 2238, anaerobic, stool isolate"}, "[17]": {"tested_on": "Shigella sonnei ATCC 25931", "type": "cell-based"}, "[18]": {"tested_on": "Lactobacillus reuteri ATCC 23272", "type": "cell-based"}, "murine gut microbiome": {"tested_on": "murine gut microbiome", "assay": "Impact on the murine fecal microbiome (16S rRNA sequencing)", "procedure": "Stool samples were collected and V4 region of the 16s rRNA gene was amplified using primers and sequenced (IonTorrent).\nFecal pellets were collected 3 days before and 3 days after antibiotic treatment and were stored at −80° C. in PBS. Sequencing of a stool pellet from each mouse from before and after treatment was performed by MR DNA (www.mrdnalab.com, Shallowater, TX, USA) on an Ion Torrent PGM. Using PCR primers, the V4 variable region of the 16SrRNA gene was amplified in a single-step 30 cycle PCR with the HotStarTaq Plus Master Mix Kit (Qiagen, USA). The following conditions were used: 94° C. for 3 minutes and 30 cycles of 94° C. for 30 seconds, 53° C. for 40 seconds and 72° C. for 1 minute, then a final elongation step for 5 minutes at 72° C. […] Barcodes and primers and then sequences<150 bp were removed. Further, sequences with homopolymer runs exceeding 6 bp and sequences with ambiguous calls were removed. The sequences were then denoised, OTUs were generated, and chimeras were removed; OTUs were clustered at 3% divergence. Taxonomic classification was performed using BLASTn against a database derived from RDPII available at www.rdp.cme.msu.edu) and NCBI (www.ncbi.nlm.nih.gov). The change in relative abundance of the most abundant genera from before to after treatment of each individual mouse was reported. Further, raw sequences were processed in Qiita (Gonzalez, A., et al. (2018). Nat Methods 15, 796-798; the contents of which are herein incorporated by reference in its entirety) and were demultiplexed, trimmed to 100 bp, and closed reference OTU picking was performed against the Greengenes database at 97% similarity (McDonald, D. et al. (2012). ISME J 6, 610-618; the contents of which are herein incorporated by reference in its entirety). The alpha diversity based on the Simpson index was calculated in Qiita. The change in the Simpson index was calculated for the fecal microbiome of each mouse from before to after treatment. Statistical significance was calculated using a one-way ANOVA with Tukey's multiple comparisons test (p<0.05)."}, "[19]": {"tested_on": "Clostridium tertium KLE 2303", "type": "cell-based", "conditions": "Clostridium tertium KLE 2303, anaerobic, stool isolate"}, "Escherichia coli MG1655": {"tested_on": "Escherichia coli MG1655", "type": "cell-based"}, "[20]": {"tested_on": "Leptospira biflexa ATCC 23582"}, "[21]": {"tested_on": "Bifidobacterium longum ATCC BAA-999", "type": "cell-based"}, "Borreliella miyamotoi": {"tested_on": "Borreliella miyamotoi", "conditions": "Borreliella miyamotoi, microaerophilic"}}, "note": "Like-named read-outs stand apart in the source and are kept apart here.", "data": [{"substance": "Hygromycin A", "values": [{"measurement": "Minimum inhibitory concentration (MIC)", "setting": "[1]", "result": 2, "unit": "µg/mL"}, {"measurement": "MIC", "setting": "[2]; Borrelia turcica", "result": 0.5, "unit": "µg"}, {"measurement": "Minimum inhibitory concentration (MIC)", "setting": "[2]; Borrelia turcica DSM 16138, microaerophilic", "result": 0.5, "unit": "µg/mL"}, {"measurement": "Minimum inhibitory concentration (MIC)", "setting": "[3]", "result": ">128", "unit": "µg/mL"}, {"measurement": "Minimum inhibitory concentration (MIC)", "setting": "[4]", "result": 32, "unit": "µg/mL"}, {"measurement": "Minimum inhibitory concentration (MIC)", "setting": "[5]", "result": 4, "unit": "µg/mL"}, {"measurement": "MIC", "setting": "[6]", "result": 0.25, "unit": "µg/mL"}, {"measurement": "Minimum inhibitory concentration (MIC)", "setting": "[6]; Borreliella burgdorferi B31, microaerophilic", "result": 0.25, "unit": "µg/mL"}, {"measurement": "Minimum inhibitory concentration (MIC)", "setting": "[7]", "result": 64, "unit": "µg/mL"}, {"measurement": "Minimum inhibitory concentration (MIC)", "setting": "[8]", "result": 64, "unit": "µg/mL"}, {"measurement": "Minimum inhibitory concentration (MIC)", "setting": "[9]", "result": 64, "unit": "µg/mL"}, {"measurement": "MIC", "setting": "[10]; Enterococcus faecalis", "result": ">128", "unit": "µg"}, {"measurement": "Minimum inhibitory concentration (MIC)", "setting": "[10]; Enterococcus faecalis KLE 2341, anaerobic, stool isolate", "result": ">128", "unit": "µg/mL"}, {"measurement": "Minimum inhibitory concentration (MIC)", "setting": "[11]", "result": ">128", "unit": "µg/mL"}, {"measurement": "MIC", "setting": "Borrelia garinii; B. garinii", "result": 0.25, "unit": "µg/mL"}, {"measurement": "MIC", "setting": "Borrelia garinii; Borrelia garinii", "result": 0.25, "unit": "µg"}, {"measurement": "Minimum inhibitory concentration (MIC)", "setting": "Borrelia garinii; Borreliella garinii, microaerophilic", "result": 0.25, "unit": "µg/mL"}, {"measurement": "MIC", "setting": "[12]; Salmonella typhimurium", "result": ">128", "unit": "µg"}, {"measurement": "Minimum inhibitory concentration (MIC)", "setting": "[12]; Salmonella typhimurium LT2 ATCC 19585, anaerobic", "result": ">128", "unit": "µg/mL"}, {"measurement": "Minimum inhibitory concentration (MIC)", "setting": "[13]", "result": 8, "unit": "µg/mL"}, {"measurement": "Minimum inhibitory concentration (MIC)", "setting": "[14]", "result": 0.25, "unit": "µg/mL"}, {"measurement": "Minimum inhibitory concentration (MIC)", "setting": "[15]", "result": 16, "unit": "µg/mL"}, {"measurement": "Minimum inhibitory concentration (MIC)", "setting": "[16]", "result": 16, "unit": "µg/mL"}, {"measurement": "MIC", "setting": "[17]; Shigella sonnei", "result": 64, "unit": "µg"}, {"measurement": "Minimum inhibitory concentration (MIC)", "setting": "[17]; Shigella sonnei ATCC 25931, anaerobic", "result": 64, "unit": "µg/mL"}, {"measurement": "MIC", "setting": "[18]; Lactobacillus reuteri", "result": 32, "unit": "µg"}, {"measurement": "Minimum inhibitory concentration (MIC)", "setting": "[18]; Lactobacillus reuteri ATCC 23272, anaerobic", "result": 32, "unit": "µg/mL"}, {"measurement": "Increases in Enterococcaceae or Enterobacteriaceae", "setting": "murine gut microbiome; HygA 50 mg/kg oral, 5 days", "result": "did not lead to increases"}, {"measurement": "Mice that maintained Bacteroidaceae levels", "setting": "murine gut microbiome; HygA 50 mg/kg oral, 5 days", "result": "1/5"}, {"measurement": "Mice with decreased Bacteroidaceae", "setting": "murine gut microbiome; HygA 50 mg/kg oral, 5 days", "result": "3/5"}, {"measurement": "Mice with increased Bacteroidaceae", "setting": "murine gut microbiome; HygA 50 mg/kg oral, 5 days", "result": "1/5"}, {"measurement": "Overall fluctuation of Bacteroidaceae", "setting": "murine gut microbiome; HygA 50 mg/kg oral, 5 days, not significantly different from untreated", "result": "−8.5", "unit": "% relative abundance"}, {"measurement": "Change in symbiotic Lactobacillus and Lactococcus", "setting": "murine gut microbiome; after treatment", "result": "prominent increase"}, {"measurement": "Changes in the composition of the microbiota", "setting": "murine gut microbiome; clinically relevant doses, 16S rDNA sequencing, FIG. 8, 9A, 9B", "result": "milder"}, {"measurement": "Minimum inhibitory concentration (MIC)", "setting": "[19]", "result": 8, "unit": "µg/mL"}, {"measurement": "MIC", "setting": "Escherichia coli MG1655", "result": 128, "unit": "µg"}, {"measurement": "Minimum inhibitory concentration (MIC)", "setting": "Escherichia coli MG1655", "result": 128, "unit": "µg/mL"}, {"measurement": "MIC", "setting": "Borrelia afzelii; B. afzelii", "result": 0.25, "unit": "µg/mL"}, {"measurement": "MIC", "setting": "Borrelia afzelii; Borrelia afzelii", "result": 0.25, "unit": "µg"}, {"measurement": "Minimum inhibitory concentration (MIC)", "setting": "Borrelia afzelii; Borreliella afzelii, microaerophilic", "result": 0.25, "unit": "µg/mL"}, {"measurement": "MIC", "setting": "Borrelia bavariensis; B. bavariensis", "result": 0.25, "unit": "µg/mL"}, {"measurement": "MIC", "setting": "Borrelia bavariensis; Borrelia bavariensis", "result": 0.25, "unit": "µg"}, {"measurement": "Minimum inhibitory concentration (MIC)", "setting": "Borrelia bavariensis; Borreliella bavariensis, microaerophilic", "result": 0.25, "unit": "µg/mL"}, {"measurement": "MIC", "setting": "[20]; Leptospira biflexa", "result": 4, "unit": "µg"}, {"measurement": "Minimum inhibitory concentration (MIC)", "setting": "[20]; Leptospira biflexa ATCC 23582", "result": 4, "unit": "µg/mL"}, {"measurement": "MIC", "setting": "[21]; Bifidobacterium longum", "result": 8, "unit": "µg"}, {"measurement": "Minimum inhibitory concentration (MIC)", "setting": "[21]; Bifidobacterium longum ATCC BAA-999, anaerobic", "result": 8, "unit": "µg/mL"}, {"measurement": "Minimum inhibitory concentration (MIC)", "setting": "Borreliella miyamotoi", "result": 0.25, "unit": "µg/mL"}]}]}
